pIC50: −log10 of the molar value. Each block holds one compound with its values, some of them ahead of it.
Tests used:
[1] = test system: Rattus norvegicus; assay: The compound was evaluated for the antihypertensive activity at a dose of 45 umol/kg given orally; assay type: functional
[2] = test system: Rattus norvegicus; assay: Compound was evaluated for the antihypertensive activity at a dose of 45 umol/kg given orally; No significant effect on blood pressure; assay type: functional, organism-based
[3] = species: Rattus norvegicus; assay: Vasorelaxant potency by relaxation of the methoxamine contracted rat aorta; assay type: functional
[4] = test system: Rattus norvegicus; assay: Compound was evaluated for the antihypertensive activity at a dose of 45 umol/kg given orally; No significant effect on blood pressure.; assay type: functional, organism-based
[5] = species: Cavia porcellus; assay: Percent inhibition of inward calcium current by 100 uM of the compound; assay type: functional; set-up: scale not given: the % may be the effect or the level left
[6] = species: Cavia porcellus; assay: Percent inhibition of inward calcium current by 10 uM of the compound; assay type: functional; set-up: scale not given: the % may be the effect or the level left
[7] = species: Cavia porcellus; assay: Percent inhibition of inward calcium current by 50 uM of the compound; assay type: functional; set-up: scale not given: the % may be the effect or the level left
[8] = test system: Rattus norvegicus; assay: The compound was evaluated for the antihypertensive activity at a dose of 45 umol/kg given orally.; assay type: functional

SMILES: CC1(C)Oc2ccc(C#N)cc2[C@@H](N2CCCC2=O)[C@@H]1O [CROMAKALIM]
- Activity [1]: 63%

- pIC50 [3]: 5.62
SMILES: COc1ccc([C@@H]2Sc3ccccc3N(CCN(C)C)C(=O)[C@@H]2OC(C)=O)cc1 [DILTIAZEM]
- IC50 [2]: Not Active

- pIC50 [3]: 6.36
SMILES: CC1(C)Oc2c(c(=O)n(Cc3ccccc3)c3ccccc23)[C@@H](N2CCCC2=O)[C@@H]1O
- IC50 [4]: Not Active
- Activity [5]: 55%
- Activity [6]: 30%
- Activity [7]: 46%

SMILES: COC(=O)C1=C(C)NC(C)=C(C(=O)OC)C1c1ccccc1[N+](=O)[O-] [NIFEDIPINE]
- Activity [8]: 33%
- pIC50 [3]: 8.40

Reference: ChEMBL document CHEMBL1126367, “The discovery of a novel calcium channel blocker related to the structure of potassium channel opener cromakalim” (Bioorg Med Chem Lett, 1992)
